Test results taken from the NIST ThermoML archive (doi:10.1016/j.jct.2016.06.016).
± gives the expanded uncertainty stated by the source.

Test: xn = mol fraction of the nth substance listed
Details: 100 kPa, Liquid; for viscosity: Concentric cylinders viscometry; for mass density: Vibrating tube method

CCOC(=O)CCC(=O)OCC [diethyl butanedioate] + CCCCCCO
Details	mass density [kg/m3]	viscosity [mPa·s]
288.15 K, x1 = 0.0999	849.53 ± 0.83	4.539 ± 0.043
288.15 K, x1 = 0.2	875.7 ± 0.83	3.729 ± 0.035
288.15 K, x1 = 0.3001	900.45 ± 0.83	3.285 ± 0.031
288.15 K, x1 = 0.4	923.97 ± 0.83	3.019 ± 0.029
288.15 K, x1 = 0.4999	946.39 ± 0.83	2.869 ± 0.027
288.15 K, x1 = 0.6	967.72 ± 0.83	2.789 ± 0.027
288.15 K, x1 = 0.7002	988.27 ± 0.83	2.788 ± 0.027
288.15 K, x1 = 0.7999	1007.86 ± 0.83	2.856 ± 0.027
288.15 K, x1 = 0.9	1026.75 ± 0.83	2.954 ± 0.028
288.15 K, x1 = 1	1044.83 ± 0.84	3.195 ± 0.03
293.15 K, x1 = 0.0999	845.73 ± 0.83	3.876 ± 0.036
293.15 K, x1 = 0.2	871.67 ± 0.83	3.213 ± 0.03
293.15 K, x1 = 0.3001	896.23 ± 0.83	2.842 ± 0.027
293.15 K, x1 = 0.4	919.56 ± 0.83	2.62 ± 0.025
293.15 K, x1 = 0.4999	941.82 ± 0.83	2.495 ± 0.024
293.15 K, x1 = 0.6	963 ± 0.83	2.432 ± 0.023
293.15 K, x1 = 0.7002	983.42 ± 0.83	2.435 ± 0.023
293.15 K, x1 = 0.7999	1002.88 ± 0.83	2.495 ± 0.024
293.15 K, x1 = 0.9	1021.66 ± 0.83	2.61 ± 0.025
293.15 K, x1 = 1	1039.63 ± 0.83	2.807 ± 0.027
298.15 K, x1 = 0.0999	841.91 ± 0.83	3.358 ± 0.032
298.15 K, x1 = 0.2	867.63 ± 0.83	2.817 ± 0.027
298.15 K, x1 = 0.3001	891.99 ± 0.83	2.508 ± 0.024
298.15 K, x1 = 0.4	915.15 ± 0.83	2.327 ± 0.023
298.15 K, x1 = 0.4999	937.24 ± 0.83	2.231 ± 0.022
298.15 K, x1 = 0.6	958.28 ± 0.83	2.18 ± 0.021
298.15 K, x1 = 0.7002	978.57 ± 0.83	2.188 ± 0.021
298.15 K, x1 = 0.7999	997.91 ± 0.83	2.24 ± 0.022
298.15 K, x1 = 0.9	1016.57 ± 0.83	2.337 ± 0.023
298.15 K, x1 = 1	1034.44 ± 0.83	2.491 ± 0.024
303.15 K, x1 = 0.0999	838.07 ± 0.83	2.932 ± 0.028
303.15 K, x1 = 0.2	863.58 ± 0.83	2.477 ± 0.024
303.15 K, x1 = 0.3001	887.75 ± 0.83	2.222 ± 0.022
303.15 K, x1 = 0.4	910.73 ± 0.83	2.071 ± 0.02
303.15 K, x1 = 0.4999	932.67 ± 0.83	1.99 ± 0.019
303.15 K, x1 = 0.6	953.56 ± 0.83	1.952 ± 0.019
303.15 K, x1 = 0.7002	973.72 ± 0.83	1.962 ± 0.019
303.15 K, x1 = 0.7999	992.94 ± 0.83	2.01 ± 0.02
303.15 K, x1 = 0.9	1011.5 ± 0.83	2.098 ± 0.02
303.15 K, x1 = 1	1029.25 ± 0.83	2.229 ± 0.022
308.15 K, x1 = 0.0999	834.22 ± 0.83	2.572 ± 0.025
308.15 K, x1 = 0.2	859.52 ± 0.83	2.193 ± 0.021
308.15 K, x1 = 0.3001	883.49 ± 0.83	1.98 ± 0.019
308.15 K, x1 = 0.4	906.3 ± 0.83	1.854 ± 0.018
308.15 K, x1 = 0.4999	928.09 ± 0.83	1.788 ± 0.018
308.15 K, x1 = 0.6	948.84 ± 0.83	1.759 ± 0.017
308.15 K, x1 = 0.7002	968.87 ± 0.83	1.77 ± 0.017
308.15 K, x1 = 0.7999	987.97 ± 0.83	1.816 ± 0.018
308.15 K, x1 = 0.9	1006.42 ± 0.83	1.893 ± 0.019
308.15 K, x1 = 1	1024.08 ± 0.83	2.008 ± 0.02
313.15 K, x1 = 0.0999	830.34 ± 0.83	2.276 ± 0.022
313.15 K, x1 = 0.2	855.43 ± 0.83	1.961 ± 0.019
313.15 K, x1 = 0.3001	879.22 ± 0.83	1.783 ± 0.018
313.15 K, x1 = 0.4	901.87 ± 0.83	1.679 ± 0.017
313.15 K, x1 = 0.4999	923.5 ± 0.83	1.626 ± 0.016
313.15 K, x1 = 0.6	944.11 ± 0.83	1.604 ± 0.016
313.15 K, x1 = 0.7002	964.01 ± 0.83	1.617 ± 0.016
313.15 K, x1 = 0.7999	983 ± 0.83	1.659 ± 0.017
313.15 K, x1 = 0.9	1001.34 ± 0.83	1.729 ± 0.017
313.15 K, x1 = 1	1018.9 ± 0.83	1.821 ± 0.018
318.15 K, x1 = 0.0999	826.44 ± 0.83	2.013 ± 0.02
318.15 K, x1 = 0.2	851.33 ± 0.83	1.748 ± 0.017
318.15 K, x1 = 0.3001	874.93 ± 0.83	1.598 ± 0.016
318.15 K, x1 = 0.4	897.41 ± 0.83	1.511 ± 0.015
318.15 K, x1 = 0.4999	918.89 ± 0.83	1.468 ± 0.015
318.15 K, x1 = 0.6	939.37 ± 0.83	1.452 ± 0.015
318.15 K, x1 = 0.7002	959.15 ± 0.83	1.467 ± 0.015
318.15 K, x1 = 0.7999	978.02 ± 0.83	1.506 ± 0.015
318.15 K, x1 = 0.9	996.26 ± 0.83	1.57 ± 0.016
318.15 K, x1 = 1	1013.72 ± 0.83	1.66 ± 0.017
323.15 K, x1 = 0.0999	822.52 ± 0.83	1.817 ± 0.018
323.15 K, x1 = 0.2	847.2 ± 0.83	1.584 ± 0.016
323.15 K, x1 = 0.3001	870.62 ± 0.83	1.458 ± 0.015
323.15 K, x1 = 0.4	892.94 ± 0.83	1.386 ± 0.014
323.15 K, x1 = 0.4999	914.27 ± 0.83	1.344 ± 0.014
323.15 K, x1 = 0.6	934.62 ± 0.83	1.337 ± 0.014
323.15 K, x1 = 0.7002	954.28 ± 0.83	1.353 ± 0.014
323.15 K, x1 = 0.7999	973.05 ± 0.83	1.391 ± 0.014
323.15 K, x1 = 0.9	991.18 ± 0.83	1.448 ± 0.015
323.15 K, x1 = 1	1008.55 ± 0.83	1.523 ± 0.015
